# Literature values in US8017624B2, “Fused aminopiperidines as dipeptidyi peptidase-IV inhibitors for the treatment or prevention of diabetes” (Merck Sharp & Dohme Corp., priority 2005, dated 2011).
# What was measured:
# hematopoiesis = details: mouse, cyclophosphamide-induced neutropenia; WO 99/56753
# DPP-IV = target: T1, DPP-IV (Homo sapiens, UniProt P27487)
# T1 construct: GRF is rapidly degraded in plasma to GRF[3-44]
# [1] = test system: cardiac allograft survival; details: rats; Transplantation 63: 1495-1500 (1997)
# T1 sequence (P27487 whole entry, species assumed): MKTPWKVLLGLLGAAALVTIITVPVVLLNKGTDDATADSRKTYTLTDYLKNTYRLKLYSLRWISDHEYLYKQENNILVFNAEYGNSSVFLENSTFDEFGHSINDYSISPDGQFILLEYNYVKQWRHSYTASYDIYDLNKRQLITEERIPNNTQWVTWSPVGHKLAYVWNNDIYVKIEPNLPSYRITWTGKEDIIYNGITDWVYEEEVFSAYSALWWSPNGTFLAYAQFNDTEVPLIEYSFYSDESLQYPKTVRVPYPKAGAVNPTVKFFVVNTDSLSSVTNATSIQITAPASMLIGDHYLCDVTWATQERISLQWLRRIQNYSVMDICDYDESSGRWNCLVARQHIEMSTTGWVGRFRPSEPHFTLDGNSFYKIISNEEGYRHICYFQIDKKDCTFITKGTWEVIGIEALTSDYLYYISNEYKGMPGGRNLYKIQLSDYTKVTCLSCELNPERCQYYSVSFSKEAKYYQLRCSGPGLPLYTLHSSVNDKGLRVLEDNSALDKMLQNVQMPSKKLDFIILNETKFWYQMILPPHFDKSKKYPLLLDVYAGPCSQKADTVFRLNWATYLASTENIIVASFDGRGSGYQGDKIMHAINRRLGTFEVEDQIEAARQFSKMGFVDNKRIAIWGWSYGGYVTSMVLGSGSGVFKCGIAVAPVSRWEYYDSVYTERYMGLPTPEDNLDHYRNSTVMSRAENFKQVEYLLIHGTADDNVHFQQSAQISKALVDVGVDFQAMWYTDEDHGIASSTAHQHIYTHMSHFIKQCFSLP
structure (smiles),measurement,setting,value
CC(C)[C@H](N)C(=O)N1CCC[C@H]1B(O)O [Val-Boro-Pro],effect on hematopoiesis,hematopoiesis,stimulated hematopoiesis
CC[C@H](C)[C@H](N)C(=O)N1CCC[C@H]1C(=O)N[C@H](C(=O)O)[C@@H](C)CC [diprotin A],degradation of GRF in plasma to GRF[3-44],DPP-IV,prevented
"CC(C)N1CCC(c2ccccc2)(c2ccccc2)CC1 [Prodipine, Pro-Pro-diphenyl-phosphonate]",cardiac allograft survival,[1],double cardiac allograft survival in rats from day 7 to day 14
